What was measured:
Experiment in all cases: Test C preemergence
Format in all cases: in vivo
[1] = tested on: Galium (catchweed bedstraw, Galium aparine); details: for Plant response rating, Galium: scale 0 to 100, 0 no effect, 100 complete control
Outline: (§1)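 Herbicidal effect, applied preemergence to sown seeds or postemergence to 1- to 4-leaf plants, was scored visually 13 to 15 d after application, 0 to 100 versus controls.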

[2] = tested on: barnyardgrass (Echinochloa crus-galli); details: for Plant response rating, Barnyardgrass: scale 0 to 100, 0 no effect, 100 complete control
Outline: as §1

[3] = tested on: blackgrass (Alopecurus myosuroides); details: for Plant response rating, Blackgrass: scale 0 to 100, 0 no effect, 100 complete control
Outline: as §1

[4] = tested on: corn (Zea mays); details: for Plant response rating, Corn: scale 0 to 100, 0 no effect, 100 complete control
Outline: as §1

[5] = tested on: crabgrass, large (large crabgrass, Digitaria sanguinalis); details: for Plant response rating, Crabgrass, Large: scale 0 to 100, 0 no effect, 100 complete control
Outline: as §1

[6] = tested on: foxtail, giant (giant foxtail, Setaria faberii); details: for Plant response rating, Foxtail, Giant: scale 0 to 100, 0 no effect, 100 complete control
Outline: as §1

[7] = tested on: johnsongrass (Sorghum halepense); details: for Plant response rating, Johnsongrass: scale 0 to 100, 0 no effect, 100 complete control
Outline: as §1

[8] = tested on: lambsquarters (Chenopodium album); details: for Plant response rating, Lambsquarters: scale 0 to 100, 0 no effect, 100 complete control
Outline: as §1

[9] = tested on: morningglory (Ipomoea coccinea); details: for Plant response rating, Morningglory: scale 0 to 100, 0 no effect, 100 complete control
Outline: as §1

[10] = tested on: nutsedge, yellow (yellow nutsedge, Cyperus esculentus); details: for Plant response rating, Nutsedge, Yellow: scale 0 to 100, 0 no effect, 100 complete control
Outline: as §1

[11] = tested on: oilseed rape (Brassica napus); details: for Plant response rating, Oilseed Rape: scale 0 to 100, 0 no effect, 100 complete control
Outline: as §1

[12] = tested on: pigweed (Amaranthus retroflexus); details: for Plant response rating, Pigweed: scale 0 to 100, 0 no effect, 100 complete control
Outline: as §1

[13] = tested on: ragweed (common ragweed, Ambrosia elatior); details: for Plant response rating, Ragweed: scale 0 to 100, 0 no effect, 100 complete control
Outline: as §1

[14] = tested on: ryegrass, Italian (Italian ryegrass, Lolium multiflorum); details: for Plant response rating, Ryegrass, Italian: scale 0 to 100, 0 no effect, 100 complete control
Outline: as §1

[15] = tested on: soybean (Glycine max); details: for Plant response rating, Soybean: scale 0 to 100, 0 no effect, 100 complete control
Outline: as §1

[16] = tested on: velvetleaf (Abutilon theophrasti); details: for Plant response rating, Velvetleaf: scale 0 to 100, 0 no effect, 100 complete control
Outline: as §1

[17] = tested on: waterhemp (common waterhemp, Amaranthus rudis); details: for Plant response rating, Waterhemp: scale 0 to 100, 0 no effect, 100 complete control
Outline: as §1

[18] = tested on: wheat (winter wheat, Triticum aestivum); details: for Plant response rating, Wheat: scale 0 to 100, 0 no effect, 100 complete control
Outline: as §1

[19] = 31 g ai/ha, 0 is no effect, 100 is complete control

Compound: Cc1ccc(C2CN(C)C(=O)C2C(=O)Nc2ccccc2S(C)(=O)=O)cc1 (stereo not drawn) [Compound 663]
- Plant response rating (scale of 0 to 100), Galium [1, 19]: 90
- Plant response rating, Galium ([1]; 62 g ai/ha): 90
- Plant response rating, Galium ([1]; 125 g ai/ha): 85
- Plant response rating, Galium ([1]; 250 g ai/ha): 90
- Plant response rating (scale of 0 to 100), Barnyardgrass [2, 19]: 95
- Plant response rating, Barnyardgrass ([2]; 62 g ai/ha): 90
- Plant response rating, Barnyardgrass ([2]; 125 g ai/ha): 98
- Plant response rating, Barnyardgrass ([2]; 250 g ai/ha): 100
- Plant response rating (scale of 0 to 100), Blackgrass [3, 19]: 20
- Plant response rating, Blackgrass ([3]; 62 g ai/ha): 60
- Plant response rating, Blackgrass ([3]; 125 g ai/ha): 85
- Plant response rating, Blackgrass ([3]; 250 g ai/ha): 95
- Plant response rating (scale of 0 to 100), Corn [4, 19]: 0
- Plant response rating, Corn ([4]; 62 g ai/ha): 10
- Plant response rating, Corn ([4]; 125 g ai/ha): 20
- Plant response rating, Corn ([4]; 250 g ai/ha): 60
- Plant response rating (scale of 0 to 100), Crabgrass, Large [5, 19]: 95
- Plant response rating, Crabgrass, Large ([5]; 62 g ai/ha): 98
- Plant response rating, Crabgrass, Large ([5]; 125 g ai/ha): 100
- Plant response rating, Crabgrass, Large ([5]; 250 g ai/ha): 100
- Plant response rating (scale of 0 to 100), Foxtail, Giant [6, 19]: 95
- Plant response rating, Foxtail, Giant ([6]; 62 g ai/ha): 95
- Plant response rating, Foxtail, Giant ([6]; 125 g ai/ha): 98
- Plant response rating, Foxtail, Giant ([6]; 250 g ai/ha): 100
- Plant response rating (scale of 0 to 100), Johnsongrass [7, 19]: 0
- Plant response rating, Johnsongrass ([7]; 62 g ai/ha): 10
- Plant response rating, Johnsongrass ([7]; 125 g ai/ha): 20
- Plant response rating, Johnsongrass ([7]; 250 g ai/ha): 40
- Plant response rating (scale of 0 to 100), Lambsquarters [8, 19]: 70
- Plant response rating, Lambsquarters ([8]; 62 g ai/ha): 60
- Plant response rating, Lambsquarters ([8]; 125 g ai/ha): 65
- Plant response rating, Lambsquarters ([8]; 250 g ai/ha): 85
- Plant response rating (scale of 0 to 100), Morningglory [9, 19]: 0
- Plant response rating, Morningglory ([9]; 62 g ai/ha): 35
- Plant response rating, Morningglory ([9]; 125 g ai/ha): 30
- Plant response rating, Morningglory ([9]; 250 g ai/ha): 40
- Plant response rating (scale of 0 to 100), Nutsedge, Yellow [10, 19]: 0
- Plant response rating, Nutsedge, Yellow ([10]; 62 g ai/ha): 0
- Plant response rating, Nutsedge, Yellow ([10]; 125 g ai/ha): 0
- Plant response rating, Nutsedge, Yellow ([10]; 250 g ai/ha): 50
- Plant response rating (scale of 0 to 100), Oilseed Rape [11, 19]: 30
- Plant response rating, Oilseed Rape ([11]; 62 g ai/ha): 20
- Plant response rating, Oilseed Rape ([11]; 125 g ai/ha): 65
- Plant response rating, Oilseed Rape ([11]; 250 g ai/ha): 80
- Plant response rating (scale of 0 to 100), Pigweed [12, 19]: 70
- Plant response rating, Pigweed ([12]; 62 g ai/ha): 60
- Plant response rating, Pigweed ([12]; 125 g ai/ha): 70
- Plant response rating, Pigweed ([12]; 250 g ai/ha): 75
- Plant response rating (scale of 0 to 100), Ragweed [13, 19]: 50
- Plant response rating, Ragweed ([13]; 62 g ai/ha): 55
- Plant response rating, Ragweed ([13]; 125 g ai/ha): 70
- Plant response rating, Ragweed ([13]; 250 g ai/ha): 85
- Plant response rating (scale of 0 to 100), Ryegrass, Italian [14, 19]: 10
- Plant response rating, Ryegrass, Italian ([14]; 62 g ai/ha): 70
- Plant response rating, Ryegrass, Italian ([14]; 125 g ai/ha): 50
- Plant response rating, Ryegrass, Italian ([14]; 250 g ai/ha): 75
- Plant response rating (scale of 0 to 100), Soybean [15, 19]: 0
- Plant response rating, Soybean ([15]; 62 g ai/ha): 10
- Plant response rating, Soybean ([15]; 125 g ai/ha): 0
- Plant response rating, Soybean ([15]; 250 g ai/ha): 0
- Plant response rating (scale of 0 to 100), Velvetleaf [16, 19]: 5
- Plant response rating, Velvetleaf ([16]; 62 g ai/ha): 15
- Plant response rating, Velvetleaf ([16]; 125 g ai/ha): 30
- Plant response rating, Velvetleaf ([16]; 250 g ai/ha): 55
- Plant response rating (scale of 0 to 100), Waterhemp [17, 19]: 50
- Plant response rating, Waterhemp ([17]; 62 g ai/ha): 60
- Plant response rating, Waterhemp ([17]; 125 g ai/ha): 85
- Plant response rating, Waterhemp ([17]; 250 g ai/ha): 90
- Plant response rating (scale of 0 to 100), Wheat [18, 19]: 0
- Plant response rating, Wheat ([18]; 62 g ai/ha): 50
- Plant response rating, Wheat ([18]; 125 g ai/ha): 55
- Plant response rating, Wheat ([18]; 250 g ai/ha): 90
